What was measured:
[1] = system: A549 (non-small cell lung cancer) cells; test: MTT antiproliferative assay, A549; format: cell-based, human; settings: exposure time 96 h, means ± standard deviations
Protocol: (§1) CH1/PA-1 (ovarian teratocarcinoma) cells were a generous gift from Lloyd R. Kelland (CRC Centre for Cancer Therapeutics, Institute of Cancer Research, Sutton, UK). A549 (non-small cell lung cancer), SW480, and HCT116 (both colon cancer) cells were kindly provided by the Institute of Cancer Research, Department of Medicine I, Medical University of Vienna, Austria. All cell lines were grown as monolayer cultures in Eagle’s MEM supplemented with L-glutamine (4 mM), sodium pyruvate (1 mM) and 1% (v/v) non-essential amino acid solution (all from Sigma-Aldrich) and 10% (v/v) heat-inactivated fetal calf serum (FCS, BioWest) in 75-cm^2 flasks (Starlab) at 37 °C under a humidified atmosphere containing 5% CO2 in air. […] After 24 h, test compounds were dissolved in DMSO (Fisher Scientific), serially diluted in complete MEM not to exceed a final DMSO content of 0.5% (v/v) and added in 100 μL per well. After 96 h, the drug-containing medium was replaced with 100 µL of RPMI 1640/MTT mixture, i. e., 6 parts of RPMI 1640 medium (Sigma-Aldrich; supplemented with 10% heat-inactivated fetal bovine serum and 4 mM L-glutamine), 1 part of MTT solution in phosphate-buffered saline (5 mg/mL; both from Sigma-Aldrich). After incubation for 4 h, the MTT-containing medium was replaced with 150 μL DMSO per well to dissolve the formazan product formed by viable cells. Optical densities at 550 nm (and at the reference wavelength of 690 nm) were measured with a microplate reader (ELx808, Bio-Tek). The IC50 values relative to untreated controls were interpolated from concentration–effect curves. At least three independent experiments were performed, each with triplicates per concentration level.

[2] = system: HCT116 (colon cancer) cells; test: MTT antiproliferative assay, HCT116; format: cell-based, human; settings: exposure time 96 h, means ± standard deviations
Protocol: as §1

[3] = system: SW480 (colon cancer) cells; test: MTT antiproliferative assay, SW480; format: cell-based, human; settings: exposure time 96 h, means ± standard deviations
Protocol: as §1

[4] = Lipophilicity by RP-UHPLC capacity factors (logkw, Φ0); format: physicochemical; settings: for Intercept logkw: RP-UHPLC, MeOH/0.1% formic acid in water, 25 °C, logk extrapolated to 100% water; for Φ0: percentage of methanol in the eluent at which logk is zero, Φ0 = −logkw/S; for Slope S: slope of logk against % organic eluent (MeOH)
From the text: It stands to reason that the higher the lipophilicity, the higher the cell accumulation; as far as passive diffusion is concerned, the higher efficiency with which normal cell function is compromised. As a consequence, lipophilicity is an important factor in drug development, described by the partition coefficient logP, which is routinely determined by the distribution of a compound in 1-octanol/water. However, 1-octanol, a solvent said to closely mimic the solubilizing behavior of cell membranes, forms emulsions with water. Additionally, the shake-flask method, seemingly easy, requires long sample preparation, has a low sample throughput, and lacks reproducibility, as it hinges on exact temperature control and consistent equilibration time allotted for every analyte. The time-consuming nature of this method may also lead to decomposition of the analyte. A concentration-, flow rate-, and column length-independent method is the determination of the capacity factor (k) via HPLC. The capacity factor is a measure for the equilibrium concentration between a polar phase (eluent) and an apolar phase (C18 column coating) and higher resemblance to the partition coefficient in […]. […] The percentage of methanol in the eluent at which logk is equal to zero is Φ0 [27, 28, 29].
The capacity factors k were determined with the use of an RP-UHPLC. The necessary chromatograms were recorded with a Dionex UltiMate 3000 RS UHPLC system (Thermo Fisher Scientific, Bedford, MA, USA) controlled by the Dionex Chromeleon 7.2 software. […] The capacity factors were then calculated as logk = log[(tR − t0)/t0], where tR and t0 are the retention times of the analyte and the dead time marker, respectively, at the respective MeOH:0.1% FA in water ratio. Every retention time was determined in isocratic mode for the different eluent ratios to obtain capacity factors in the linear range (−0.5 ≤ logk ≤ 1.5) in triplicate. A plot of logk against the % of the organic eluent yielded logkw (intercept) and S (slope). Φ0, the factor most closely resembling logP, was then determined as follows: Φ0 = −logkw/S [28].

SW480 cells = test: Cellular accumulation by ICP-MS quantification of ruthenium (or platinum); format: cell-based, human; settings: 50 µM; for cellular accumulation, fg Ru or Pt/Cell: exposure time 2 h, ICP-MS of ruthenium; for cellular ruthenium values: ICP-MS
Protocol: Ruthenium accumulation was measured by means of inductively coupled plasma mass spectrometry (ICP-MS) upon 2 h exposure of SW480 cells to 50 µM of each compound.
Cellular accumulation of the compounds was studied based on a previously described method with modifications as follows: SW480 cells with a number of 1.8 × 10^5 per well were seeded into 12-well plates in aliquots of 1 mL complete MEM and incubated at 37 °C for 24 h. Then, cells were exposed for 2 h at 37 °C to 50 μM solutions of the test compounds (containing 0.5% DMSO) in 500 µL of fresh complete MEM upon exchange of the medium. Afterwards, cells were washed three times with PBS, and lyzed with 0.4 mL sub-boiled HNO3 per well for 1 h at room temperature. Ruthenium content was quantified by ICP-MS using an Agilent 7500ce quadrupole ICP-MS instrument (Agilent Technologies, Waldbronn, Germany) equipped with a CETAC ASX-520 autosampler (Nebraska, USA) and a MicroMist nebulizer. Ruthenium and indium standards were obtained from CPI International (Amsterdam, The Netherlands). The instrument was equipped with nickel cones and operated at an RF power of 1560 W, with argon as the plasma gas (15 L/min), carrier gas (1.0–1.1 L/min) and make-up gas (0.1–0.2 L/min). The Agilent MassHunter software package (Workstation Software, Version B.01.01, Build 123.11, Patch 4, 2012) was used for data processing. Results are based on at least three independent experiments, each comprising triplicate samples. The instrument was tuned on a daily basis for maximum sensitivity and doubly charged species as well as oxide rates were <5%.

Row | SMILES | IC50 [1] | IC50 [2] | IC50 [3] | Intercept logkw [4] | Φ0 [4] | Slope S [4] | cellular accumulation, fg Ru or Pt/Cell (SW480 cells) | cellular ruthenium accumulation relative to complex 1d (SW480 cells; 2 h) | cellular ruthenium values (SW480 cells; 2 h)
1 | Cc1ccc(C(C)C)cc1.Cn1ccnc1.F[P-](F)(F)(F)(F)F.O=C1C(=C(NCc2ccccc2)[O][Ru+])C(=O)c2ccccc21 [1b] | 21.4 ± 1.7 µM | 24.6 ± 8.5 µM | 10.9 ± 1 µM | 5.49 | 61.84 | −0.0888 | 97 ± 28 fg Ru or Pt/Cell | – | –
2 | Cc1ccc(C(C)C)cc1.O=C1C2=C(NCc3ccccc3)[O][Ru-]([Cl])[O+]=C2c2ccccc21 [1a] | 23.4 ± 2.5 µM | 24.8 ± 6.4 µM | 12.4 ± 0.4 µM | 5.41 | 63.19 | −0.0855 | 8.4 ± 2.8 fg Ru or Pt/Cell | almost fiftyfold lower | < 10 fg/cell
3 | Cc1ccc(C(C)C)cc1.F[P-](F)(F)(F)(F)F.O=C1C2=C(NCc3ccccc3)[O][Ru-]([n+]3c[nH]c4ccccc43)[O+]=C2c2ccccc21 [1d] | 19 ± 0.8 µM | 18.8 ± 5.8 µM | 8.8 ± 1.3 µM | 5.55 | 65.87 | −0.0843 | 405 ± 128 fg Ru or Pt/Cell | – | > 400 fg/cell
4 | Cc1ccc(C(C)C)cc1.F[P-](F)(F)(F)(F)F.O=C1C2=C(NCc3ccccc3)[O][Ru-]([NH+]3CCOCC3)[O+]=C2c2ccccc21 [1g] | 18.9 ± 1.4 µM | 23.8 ± 7.6 µM | 9.2 ± 1.8 µM | 5.14 | 59.73 | –0.0860 | 123 ± 32 fg Ru or Pt/Cell | – | –
5 | Cc1ccc(C(C)C)cc1.F[P-](F)(F)(F)(F)F.O=C1C2=C(NCc3ccccc3)[O][Ru-]([n+]3ccc[nH]3)[O+]=C2c2ccccc21 [1c] | 22.9 ± 3.5 µM | 22.4 ± 6 µM | 15.2 ± 0.6 µM | 5.36 | 63.72 | −0.0841 | 67 ± 27 fg Ru or Pt/Cell | – | –
6 | Cc1ccc(C(C)C)cc1.F[P-](F)(F)(F)(F)F.O=C1C2=C(NCc3ccccc3)[O][Ru-]([n+]3cc4ccccc4[nH]3)[O+]=C2c2ccccc21 [1e] | 23.7 ± 6.4 µM | 25.1 ± 7.1 µM | 16.8 ± 3.1 µM | 5.94 | 68.88 | −0.0863 | 114 ± 35 fg Ru or Pt/Cell | – | –
